One block for each compound: values may come before it. Ends that are not written are not given here. * marks the point of attachment. Biotin = O=C1N[C@H]2[C@H](CS[C@H]2CCCCC(=O)*)N1
Target: T1, MeCP2-TBL1 interaction (MeCP2-SmBiT / TBL1-LgBiT) (Mus musculus, UniProt Q9QXE7)
T1 construct: expressed in transfected cells; crude lysate used as a cell-free assay
T1 sequence (Q9QXE7 166-527): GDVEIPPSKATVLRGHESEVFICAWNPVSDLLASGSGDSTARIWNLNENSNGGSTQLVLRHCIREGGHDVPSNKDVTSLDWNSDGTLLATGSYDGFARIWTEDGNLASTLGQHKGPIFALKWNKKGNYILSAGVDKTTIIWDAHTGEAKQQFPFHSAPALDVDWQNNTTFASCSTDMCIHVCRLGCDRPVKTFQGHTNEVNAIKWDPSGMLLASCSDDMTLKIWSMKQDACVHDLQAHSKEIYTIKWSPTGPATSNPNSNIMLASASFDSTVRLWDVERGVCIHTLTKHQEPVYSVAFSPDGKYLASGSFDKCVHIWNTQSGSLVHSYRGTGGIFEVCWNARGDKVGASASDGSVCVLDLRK
Experiment: MeCP2-TBL1 NanoLuc luciferase complementation assay (cell-free, extracts of transfected HEK293 cells)
Type: binding, human
Conditions: for inhibition in MeCP2-TBL1 assay compared with control PKA-based assay, individual validation: n = 7, t-test; for separation between MeCP2-TBL1 inhibition and inhibition of the PKA control in dose response / extent of MeCP2-TBL1 inhibition reached within the tested concentration range: 0.3–60 μM; for separation between MeCP2-TBL1 inhibition and inhibition of the PKA control in dose response: PKA-based assay run in parallel; for inhibition at 20 µM: ApexBio library screen, threshold SSMD* ≥ 3, read-out: inhibition in MeCP2-TBL1 assay after adjusting for activity in the PRKACA-PRKAR2A assay; for IC50: dose response 0.3–60 μM, triplicate, 30 min, luminescence normalized to DMSO, read-out: IC50, inhibition of MeCP2-TBL1 luminescence signal
Summary of the method: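 Cell-free split NanoLuc: lysate of HEK293 cells co-expressing the MeCP2 C-terminal half-SmBiT and TBL1 WD domain-LgBiT, mixed 1:1 with furimazine. After 30 min at room temperature, luminescence was plate-median normalized.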

[1] = primary screen of the Asinex library, sheet "Sargen output Asinex library", one well per compound
[2] = primary screen of Asinex library, single well per compound
[3] = primary screen of the Asinex library, sheet "Sargen output Asinex library", one well per compound, Batch Ref. 1

Compound: CC(=O)N1CCC2(C/C=C/C[C@H]3CN(C(=O)Cc4cccc(F)c4)CC[C@H]3NC(=O)CNC2=O)CC1 [BDH_33732909]
Inhibition percent [1]: -2.58%

Compound: Cc1nn(C)cc1CCC(=O)N1CCC[C@@H]2NC(=O)c3ccccc3OCCCCC[C@@H]21 [BDH_33734258]
Inhibition percent [2]: -1.51

Compound: O=C1COc2ccccc2CCCC[C@@H]2CN(C(=O)CCCn3cccn3)CC[C@H]2N1 [BDH_33762630]
Inhibition percent [1]: 0.76%

Compound: C[C@@]12C[C@H](c3ccccc3)N(C(=O)CCc3c[nH]c4ccccc34)[C@@H]1CCC[C@@H](O)[C@H]2O [BDH_33903568]
Inhibition percent [3]: 3.00%

Compound: CN(C)c1ccccc1C(=O)N(C)[C@H]1CC[C@@]2(CCO)C[C@H](c3ccccc3)C[C@](C)(O2)[C@@H]1O [BDH_33903744]
Inhibition percent [2]: 1.99

Compound: CC(C)(C)OC(=O)NCCC(=O)N(Cc1ccccc1)C[C@@H]1C[C@@H](n2ccc(=O)[nH]c2=O)[C@@H](O)[C@@H]1O [BDH_33952010]
Inhibition percent [1]: -1.46%

Compound: CC(C)=CCC[C@]1(C)Oc2cc(OCC(=O)O)ccc2[C@H]2OCC3(CCN(C(=O)OC(C)(C)C)CC3)C[C@@H]21 [BDH_33958802]
Inhibition percent [1]: 4.22%

Compound: CC(C)(C)OC(=O)N(Cc1ccccc1)C[C@@H]1C[C@H](O)[C@H](O)[C@H]1n1cnc2c(N)ncnc21 [BDH_34018090]
Inhibition percent [1]: -1.62%

Compound: O=C(NCCc1ccccc1)[C@@H]1[C@H](O)[C@@H](c2ccc(F)cc2)CN1C(=O)Cc1c[nH]c2ccccc12 [BDH_34023215]
Inhibition percent [2]: 2.61

Compound: CCCCC[C@]1(O)CCN(S(=O)(=O)c2ccccc2)C[C@@H]1Oc1cccc(F)c1 [BDH_34032183]
Inhibition percent [3]: 9.13%

Compound: COCCC(=O)N[C@@]1(C)C[C@@H](c2ccc(F)cc2)O[C@@H](c2ccc(N3CCCC3=O)cc2)C1 [BDH_34036118]
Inhibition percent [2]: 3.23

Compound: CN(C)CCOc1ccc(C(=O)N(C)CC2(O)CCCN(c3ccnc4ccncc34)C2)cc1 (stereo not drawn) [BDH_34040371]
Inhibition percent [2]: -4.15

Compound: CCc1nnsc1C(=O)NC[C@]1(c2ccccc2)CC[C@@H](O)[C@H](N2CCOCC2)CC1 [BDH_34124703]
Inhibition percent [1]: 0.50%

Compound: CC1(C)Oc2ccccc2[C@@H]2O[C@@H]3CCN(C(=O)c4cccc(Cn5ccnc5)c4)C[C@]3(CO)C[C@H]21 [BDH_34133896]
Inhibition percent [3]: 6.91%

Compound: CN(Cc1ccccc1)[C@@H]1[C@@H](O)[C@H](Oc2cccc(C(F)(F)F)c2)C[C@H]1NC(=O)c1cocn1 [BDI_34061115]
Inhibition percent [3]: 4.93%

Compound: CN(C)Cc1cccc(N/C(=C2\C(=O)Nc3cc(C(=O)N(C)C)ccc32)c2ccccc2)c1 [BIX02189, reference compound]
inhibition in MeCP2-TBL1 assay compared with control PKA-based assay, individual validation (20 µM): did not have a statistically different effect
separation between MeCP2-TBL1 inhibition and inhibition of the PKA control in dose response: only modest selectivity
inhibition at 20 µM (20 µM): ≥ 35%
IC50: 28 µM

Compound: O=C1C(Cl)=C(N2CCOCC2)C(=O)N1c1ccc(Cl)c(Cl)c1 [RI-1, reference compound]
Inh (MeCP2-TBL1) (ApexBio FDA-approved Drug Library screen, 20 µM): 13.6055

Compound: CCNC(=O)c1noc(-c2cc(C(C)C)c(O)cc2O)c1-c1ccc(CN2CCOCC2)cc1 [luminespib, reference compound]
inhibition in MeCP2-TBL1 assay compared with control PKA-based assay, individual validation (20 µM): statistically significantly greater
extent of MeCP2-TBL1 inhibition reached within the tested concentration range: without being able to completely inhibit MeCP2-TBL1 binding
separation between MeCP2-TBL1 inhibition and inhibition of the PKA control in dose response: clear separation
inhibition at 20 µM (20 µM): ≥ 35%
IC50: 31 µM

Compound: control peptide with the R306C mutation: 35 amino acid MeCP2 NID peptide (residues 285-319) carrying the R306C mutation, N-terminal biotin (Biotin-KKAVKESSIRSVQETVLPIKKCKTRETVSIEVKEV; UniProt P51608 285-319, looked up, variant R306C) [reference compound]
effect of competitor peptide on MeCP2-TBL1 luminescence signal (peptide at 20 µM, n = 2): failed to substantially affect

More lines, main results first:

Inhibition percent [1]: -2.43%
Compound: CC(C)C[C@H](NC(=O)OCc1ccccc1)C(=O)N1CCC2(CC1)CO[C@@H]([C@@]1(C)CC[C@H](O)C(C)(C)O1)C2 [BDH_33767587]

Inhibition percent [3]: 1.29%
Compound: Cc1cnn(CC(=O)N2CCC3(C/C=C/CCOc4ccccc4C(=O)NCCCNC3=O)CC2)c1 [BDH_33775476]

Inhibition percent [2]: -0.36
Compound: Cn1nccc1CN[C@@H]1C[C@@H](Oc2ccccc2)[C@H](O)[C@H]1N1CCN(c2ccccc2)CC1 [BDH_33787192]

Inhibition percent [3]: 3.52%
Compound: CC(C)(C)OC(=O)N1[C@@H](CNC(=O)CCc2c[nH]c3ccccc23)C[C@@]2(C)[C@@H](O)CCCC[C@@H]12 [BDH_33903570]

Inhibition percent [2]: 0.83
Compound: C[C@@]12C[C@H](c3ccccc3)N(C(=O)CCCn3cccn3)[C@@H]1CCC[C@@H](O)[C@@H]2O [BDH_33903800]

Inhibition percent [3]: 4.83%
Compound: CC(C)=CCC[C@]1(C)Oc2c(OCCOCCO)cccc2[C@H]2O[C@H]3CCN(C(=O)OC(C)(C)C)C[C@@H]3C[C@@H]21 [BDH_33957239]

Inhibition percent [3]: 7.79%
Compound: CC(C)=CCC[C@]1(C)Oc2cc(OCC(N)=O)ccc2[C@H]2OC[C@@]3(CCCN(C(=O)OC(C)(C)C)C3)C[C@@H]21 [BDH_33958782]

Inhibition percent [3]: 1.76%
Compound: CC(C)C[C@H]1CN(C(=O)CCn2c(=O)oc3cc(Cl)ccc32)CC[C@H]1Nc1cccc(F)c1 [BDH_34035644]

Inhibition percent [2]: 5.22
Compound: COCCC(=O)N[C@]1(C)C[C@@H](c2ccc(Cl)cc2)O[C@@H](c2cc(Br)ccc2O)C1 [BDH_34036884]

Inhibition percent [2]: -0.66
Compound: COc1cccc(C2CN(Cc3ccccc3)C(=O)C23CCN(Cc2cccc(C(=O)O)c2)CC3)c1 (stereo not drawn) [BDH_34129947]

Inhibition percent [2]: 0.45
Compound: COc1cccc(C2CN(Cc3ccccc3)C(=O)C23CCN(Cc2ccc(C(=O)O)cc2)CC3)c1 (stereo not drawn) [BDH_34130105]

Inhibition percent [2]: 5.00
Compound: COc1cccc(C2CN(Cc3ccccc3)C(=O)C23CCN(Cc2ccccc2C(=O)O)CC3)c1 (stereo not drawn) [BDH_34130263]

Inhibition percent [1]: 0.18%
Compound: CC(=O)N1CCC(C(=O)N[C@@H]2C[C@@H](Oc3cccc(F)c3)[C@H](O)[C@H]2N(C)Cc2ccccc2)CC1 [BDI_34055064]

Inhibition percent [3]: -0.09%
Compound: COc1ccc(CN(C)[C@@H]2[C@@H](O)[C@H](Oc3cccc(F)c3)C[C@H]2NC(=O)CCC(N)=O)cc1 [BDI_34058033]

inhibition in MeCP2-TBL1 assay compared with control PKA-based assay, individual validation (20 µM): statistically significantly greater
separation between MeCP2-TBL1 inhibition and inhibition of the PKA control in dose response: only modest selectivity
inhibition at 20 µM (20 µM): ≥ 35%
IC50: 34 µM
Compound: C=C1C(=O)[C@]23[C@H](O)[C@H]1CC[C@H]2[C@@]12CO[C@]3(O)[C@@H](O)[C@@H]1C(C)(C)CC[C@@H]2O [oridonin, reference compound]

inhibition in MeCP2-TBL1 assay compared with control PKA-based assay, individual validation (20 µM): statistically significantly greater
separation between MeCP2-TBL1 inhibition and inhibition of the PKA control in dose response: clear separation
inhibition at 20 µM (20 µM): ≥ 35%
Compound: LSSWVLLMK [AAT, alpha-1 antitrypsin fragment 235–243, reference compound]
extent of MeCP2-TBL1 inhibition reached within the tested concentration range: able to return the luminesce signal back to baseline

Source: article PMC9995496, “A screen for MeCP2-TBL1 interaction inhibitors using a luminescence-based assay” (Scientific Reports, 2023)
